ChEMBL document CHEMBL5500370, “Discovery of potent and novel dual NAMPT/BRD4 inhibitors for efficient treatment of hepatocellular carcinoma” (Eur J Med Chem, 2024)
pIC50: −log10 of the molar value.

Assays:
[1] = molecular target: Nicotinamide phosphoribosyltransferase (Homo sapiens, UniProt P43490); test: Inhibition of recombinant NAMPT (unknown origin) by fluorescence based assay
[2] = molecular target: Bromodomain-containing protein 4 (Homo sapiens, UniProt O60885); test: Inhibition of BRD4 (unknown origin) incubated for 120 mins by TR-FRET assay
Hep 3B2 [3] = test: cells; conditions: Homo sapiens, Hep3B, 120 h
[4] = Antiproliferative activity against human LX2 cells incubated for 120 hrs in presence of JQ1 by MTT assay; format: toxicity, cell-based; conditions: LX-2 cells
Hep 3B2 [5] = test: Induction of cell cycle arrest at G0/G1 phase in human Hep3B cells at 10 uM measured after 72 hrs by PI/RNase staining based flow cytometry (reference value: 56.73 %); format: functional
Hep 3B2 [6] = test: Induction of cell cycle arrest at S phase in human Hep3B cells at 10 uM measured after 72 hrs by PI/RNase staining based flow cytometry (reference value: 31.90 %); format: functional
Huh-7 [7] = test: cells; conditions: Homo sapiens, Huh-7, 120 h
Hep 3B2 [8] = test: Induction of apoptosis in human Hep3B cells assessed as viable cells at 10 uM measured after 72 hrs by Annexin V-FITC/PI staining based flow cytometry (reference value: 94.08 %); format: functional
Hep 3B2 [9] = test: Induction of cell cycle arrest at G2/M phase in human Hep3B cells at 10 uM measured after 72 hrs by PI/RNase staining based flow cytometry (reference value: 11.37 %); format: functional
Huh-7 [10] = test: Antiproliferative activity against human Huh-7 cells incubated for 120 hrs in presence of JQ1 by MTT assay; format: functional, cell-based; conditions: Huh-7, 120 h
Hep 3B2 [11] = test: Induction of apoptosis in human Hep3B cells assessed as early apoptotic cells at 10 uM measured after 72 hrs by Annexin V-FITC/PI staining based flow cytometry (reference value: 2.13 %); format: functional
Hep 3B2 [12] = test: Induction of apoptosis in human Hep3B cells assessed as necrotic cells at 10 uM measured after 72 hrs by Annexin V-FITC/PI staining based flow cytometry (reference value: 2.74 %); format: functional
Hep 3B2 [13] = test: Synergistic antiproliferative activity against human Hep3B cells measured after 72 hrs in presence of JQ1; format: functional, cell-based
HCCLM3 [14] = test: cells; conditions: Homo sapiens, HCCLM3, 120 h
Hep 3B2 [15] = test: Induction of apoptosis in human Hep3B cells assessed as late apoptotic cells at 10 uM measured after 72 hrs by Annexin V-FITC/PI staining based flow cytometry (reference value: 1.05 %); format: functional
HCCLM3 [16] = test: Antiproliferative activity against human HCCLM3 cells incubated for 120 hrs in presence of JQ1 by MTT assay; format: functional, cell-based; conditions: HCCLM3, 120 h
Hep 3B2 [17] = test: Antiproliferative activity against human Hep3B cells measured after 72 hrs; format: functional, cell-based
[18] = Antiproliferative activity against human LX2 cells incubated for 120 hrs by MTT assay; format: toxicity, cell-based; conditions: LX-2 cells
HCCLM3 [19] = test: Antitumor activity against human HCCLM3 cells xenografted in BALB/c nude mouse at 60 mg/kg, ip for 27 days relative to control; format: functional; conditions: time 27 day
Huh-7 [20] = test: Antiproliferative activity against human Huh-7 cells incubated for 120 hrs in presence of FK866 by MTT assay; format: functional, cell-based; conditions: Huh-7, 120 h
Hep 3B2 [21] = test: Synergistic antiproliferative activity against human Hep3B cells measured after 72 hrs in presence of FK866; format: functional, cell-based
HCCLM3 [22] = test: Antiproliferative activity against human HCCLM3 cells incubated for 120 hrs in presence of FK866 by MTT assay; format: functional, cell-based; conditions: HCCLM3, 120 h
[23] = Antiproliferative activity against human LX2 cells incubated for 120 hrs in presence of FK866 by MTT assay; format: toxicity, cell-based; conditions: LX-2 cells

Sequence of Nicotinamide phosphoribosyltransferase (P43490 whole entry): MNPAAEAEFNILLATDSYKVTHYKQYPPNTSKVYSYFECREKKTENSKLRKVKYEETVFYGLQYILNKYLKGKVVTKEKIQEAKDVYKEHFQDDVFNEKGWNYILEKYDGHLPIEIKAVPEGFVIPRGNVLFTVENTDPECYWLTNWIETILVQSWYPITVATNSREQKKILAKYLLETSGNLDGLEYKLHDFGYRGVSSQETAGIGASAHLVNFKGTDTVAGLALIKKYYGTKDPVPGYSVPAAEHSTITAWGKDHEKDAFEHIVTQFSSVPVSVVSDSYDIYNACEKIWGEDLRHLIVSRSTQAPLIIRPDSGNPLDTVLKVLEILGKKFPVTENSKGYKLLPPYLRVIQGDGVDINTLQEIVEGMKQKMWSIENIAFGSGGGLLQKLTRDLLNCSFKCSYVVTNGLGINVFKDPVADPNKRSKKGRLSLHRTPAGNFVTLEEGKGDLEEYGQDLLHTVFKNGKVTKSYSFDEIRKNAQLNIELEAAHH

Cc1sc2c(c1C)C(c1ccc(Cl)cc1)=N[C@@H](CC(=O)NCCNC(=O)/C=C/c1cccnc1)c1nnc(C)n1-2
pIC50 [1]: 6.39 | pIC50 [2]: 7.30 | pIC50 (Hep 3B2 [3]): 4.89

Cc1sc2c(c1C)C(c1ccc(Cl)cc1)=N[C@@H](CC(=O)NCc1ccc(CNC(=O)/C=C/c3cccnc3)cc1)c1nnc(C)n1-2
pIC50 [1]: 6.70 | pIC50 [2]: 6.89 | pIC50 (Hep 3B2 [3]): 5.34

Cc1sc2c(c1C)C(c1ccc(Cl)cc1)=N[C@@H](CC(=O)Nc1ccc(CCNC(=O)/C=C/c3cccnc3)cc1)c1nnc(C)n1-2
pIC50 [1]: 7.77 | pIC50 [2]: < 6.00 | pIC50 (Hep 3B2 [3]): 4.93

Cc1sc2c(c1C)C(c1ccc(Cl)cc1)=N[C@@H](CC(=O)NCc1ccc(NC(=O)/C=C/c3cccnc3)cc1)c1nnc(C)n1-2
pIC50 [1]: 6.51 | pIC50 [2]: 6.50 | pIC50 (Hep 3B2 [3]): 5.02

Cc1sc2c(c1C)C(c1ccc(Cl)cc1)=N[C@@H](CC(=O)N1CCC(NC(=O)/C=C/c3cccnc3)CC1)c1nnc(C)n1-2
pIC50 [1]: < 6.00 | pIC50 [2]: 6.56 | pIC50 (Hep 3B2 [3]): 5.27

O=C(/C=C/c1cccnc1)NCCCCC1CCN(C(=O)c2ccccc2)CC1 [DAPORINAD]
IC50 at 120 h [4]: < 32 nM | Activity (Hep 3B2 [5]): 63.07% | Activity (Hep 3B2 [6]): 28.62% | pIC50 (Huh-7 [7]): 5.67 | viability at 10 µM (Hep 3B2 [8]; Homo sapiens, Hep3B, read-out: Activity): 86.9% | Activity (Hep 3B2 [9]): 8.31% | pIC50 (Huh-7 [10]): 6.17 | Activity (Hep 3B2 [11]): 5.13% | Activity (Hep 3B2 [12]): 3.67% | pIC50 (Hep 3B2 [13]): 5.81 | pIC50 (HCCLM3 [14]): 6.00 | Activity (Hep 3B2 [15]): 4.26% | pIC50 (Hep 3B2 [3]): 4.27 | pIC50 (HCCLM3 [16]): 6.40 | pIC50 (Hep 3B2 [17]): 4.27 | IC50 at 120 h [18]: 210 nM | inhibition in vivo at 60 mg/kg (HCCLM3 [19]; Mus musculus, HCCLM3, 648 h, read-out: TGI): 50.1%

Cc1sc2c(c1C)C(c1ccc(Cl)cc1)=N[C@@H](CC(=O)Nc1ccc(NC(=O)/C=C/c3cccnc3)cc1)c1nnc(C)n1-2
pIC50 [1]: 6.34 | pIC50 [2]: < 6.00 | pIC50 (Hep 3B2 [3]): 4.61

Cc1sc2c(c1C)C(c1ccc(Cl)cc1)=N[C@@H](CC(=O)NCCCCCCNC(=O)/C=C/c1cccnc1)c1nnc(C)n1-2
pIC50 [1]: 7.92 | pIC50 [2]: 6.82 | pIC50 (Hep 3B2 [3]): 5.09

Cc1sc2c(c1C)C(c1ccc(Cl)cc1)=N[C@@H](CC(=O)OC(C)(C)C)c1nnc(C)n1-2
pIC50 (Huh-7 [20]): 6.17 | Activity (Hep 3B2 [5]): 73.49% | Activity (Hep 3B2 [6]): 17.92% | pIC50 (Huh-7 [7]): 4.20 | Activity (Hep 3B2 [8]): 74.38% | pIC50 (Hep 3B2 [21]): 5.81 | Activity (Hep 3B2 [9]): 8.59% | Activity (Hep 3B2 [11]): 16.25% | Activity (Hep 3B2 [12]): 3.54% | pIC50 (HCCLM3 [22]): 6.40 | IC50 at 120 h [23]: < 32 nM | pIC50 (HCCLM3 [14]): 4.06 | Activity (Hep 3B2 [15]): 5.83% | pIC50 (Hep 3B2 [3]): 5.30 | pIC50 (Hep 3B2 [17]): 5.30 | IC50 at 120 h [18]: < 32 nM | TGI (HCCLM3 [19]): 51.08%

Cc1sc2c(c1C)C(c1ccc(Cl)cc1)=N[C@@H](CC(=O)N1CCC(CCCCNC(=O)/C=C/c3cccnc3)CC1)c1nnc(C)n1-2
pIC50 [1]: 7.46 | pIC50 [2]: < 6.00 | pIC50 (Hep 3B2 [3]): 5.09

Cc1sc2c(c1C)C(c1ccc(Cl)cc1)=N[C@@H](CC(=O)NCCCCCNC(=O)/C=C/c1cccnc1)c1nnc(C)n1-2
pIC50 [1]: 6.94 | pIC50 [2]: 6.41 | pIC50 (Hep 3B2 [3]): 4.95

Cc1sc2c(c1C)C(c1ccc(Cl)cc1)=N[C@@H](CC(=O)NCCOCCNC(=O)/C=C/c1cccnc1)c1nnc(C)n1-2
pIC50 [1]: 6.78 | pIC50 [2]: 6.50 | pIC50 (Hep 3B2 [3]): 4.56

Cc1sc2c(c1C)C(c1ccc(Cl)cc1)=N[C@@H](CC(=O)N1CCC(CNC(=O)/C=C/c3cccnc3)CC1)c1nnc(C)n1-2
pIC50 [1]: < 6.00 | pIC50 [2]: 6.85 | pIC50 (Hep 3B2 [3]): 5.24

Cc1sc2c(c1C)C(c1ccc(Cl)cc1)=N[C@@H](CC(=O)NCCOCCOCCNC(=O)/C=C/c1cccnc1)c1nnc(C)n1-2
pIC50 [1]: 7.89 | pIC50 [2]: 6.28 | pIC50 (Hep 3B2 [3]): 4.66

Cc1sc2c(c1C)C(c1ccc(Cl)cc1)=N[C@@H](CC(=O)NCCCCNC(=O)/C=C/c1cccnc1)c1nnc(C)n1-2
pIC50 [1]: 8.00 | pIC50 [2]: 6.90 | pIC50 (Hep 3B2 [3]): 5.04

Cc1sc2c(c1C)C(c1ccc(Cl)cc1)=N[C@@H](CC(=O)N1CCC(CCCNC(=O)/C=C/c3cccnc3)CC1)c1nnc(C)n1-2
pIC50 [1]: 6.78 | pIC50 [2]: 6.21 | pIC50 (Hep 3B2 [3]): 5.32

Cc1sc2c(c1C)C(c1ccc(Cl)cc1)=N[C@@H](CC(=O)N1CCC(CCNC(=O)/C=C/c3cccnc3)CC1)c1nnc(C)n1-2
pIC50 [1]: 7.06 | pIC50 [2]: 6.74 | pIC50 (Hep 3B2 [3]): 5.20
